# The supplement of paper PMC11061612
# Columns and labels:
# Assay in all cases: Bliss excess, mean over the matrix (fraction); higher = more synergy
# [1] = tested on: SNU-449 (Hepatocellular Carcinoma)
# Method in brief: (§1)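 Cell lines in DMEM/F12 or RPMI with 10% FBS were plated in 1536-well plates, held 24 hours at 37°C, 5% CO2, then given two-drug dose matrices for 72 hours (DMSO typically 0.2%). Viability was read by CellTiter-Glo 2.0 luminescence and scaled as inhibition from 0 (vehicle wells) to 1 (blank wells). Combination Emax is the second-highest inhibition in the matrix; Bliss excess is observed combination effect minus expected EA + EB − EA·EB, EA and EB being single-agent effects.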
# [2] = tested on: HuH-7 (Hepatocellular Carcinoma)
# Method in brief: as §1
# [3] = tested on: SW1573 (Lung Adenocarcinoma)
# Method in brief: as §1
# [4] = tested on: BFTC-909 (Kidney Carcinoma)
# Method in brief: as §1
# [5] = tested on: Detroit562 (Head and Neck Carcinoma)
# Method in brief: as §1
# [6] = tested on: WSU-NHL (B-Cell Non-Hodgkin's Lymphoma)
# Method in brief: as §1
# [7] = tested on: LNZTA3WT4 (Low Grade Glioma)
# Method in brief: as §1
# [8] = tested on: ESS-1 (Other Solid Carcinomas)
# Method in brief: as §1
# [9] = tested on: OE21 (Esophageal Squamous Cell Carcinoma)
# Method in brief: as §1
# [10] = tested on: LCLC-97TM1 (Non-Small Cell Lung Carcinoma)
# Method in brief: as §1
# [11] = tested on: YAPC (Pancreatic Carcinoma)
# Method in brief: as §1
# [12] = tested on: ALL-PO (B-Lymphoblastic Leukemia)
# Method in brief: as §1
# [13] = tested on: OVCAR-5 (Ovarian Carcinoma)
# Method in brief: as §1
# [14] = tested on: SAS (Oral Cavity Carcinoma)
# Method in brief: as §1
# [15] = tested on: FTC-133 (Thyroid Gland Carcinoma)
# Method in brief: as §1
# [16] = tested on: HuCCT1 (Biliary Tract Carcinoma)
# Method in brief: as §1
# [17] = tested on: HH (T-Cell Non-Hodgkin's Lymphoma)
# Method in brief: as §1
# BPH-1 (Non-Cancerous) = tested on: BPH-1 (Non-Cancerous)
# Method in brief: as §1
# GAMG (Glioblastoma) = tested on: GAMG (Glioblastoma)
# Method in brief: as §1
# EW-11 (Ewing's Sarcoma) = tested on: EW-11 (Ewing's Sarcoma)
# Method in brief: as §1
SMILES,Bliss excess [1],Bliss excess [2],Bliss excess [3],Bliss excess [4],Bliss excess [5],Bliss excess [6],Bliss excess [7],Bliss excess [8],Bliss excess [9],Bliss excess [10],Bliss excess [11],Bliss excess [12],Bliss excess [13],Bliss excess [14],Bliss excess [15],Bliss excess [16],Bliss excess [17],Bliss excess (BPH-1 (Non-Cancerous)),Bliss excess (GAMG (Glioblastoma)),Bliss excess (EW-11 (Ewing's Sarcoma))
"C[C@@H](c1ccc2nccn2c1)n1nnc2ncc(-c3cnn(C)c3)nc21 [Savolitinib] + CC1(C)CCC(CN2CCN(c3ccc(C(=O)NS(=O)(=O)c4ccc(NCC5CCOCC5)c([N+](=O)[O-])c4)c(Oc4cnc5[nH]ccc5c4)c3)CC2)=C(c2ccc(Cl)cc2)C1 [Venetoclax] (first compound max 1 µM, 7x7, partner max 1 µM)",-0.0358,-0.0573,-0.0736,-0.0401,-0.0322,-0.0193,-0.0907,-0.0241,-0.0443,-0.0427,-0.0232,0.035,-0.0597,-0.0388,-0.0611,-0.0525,-0.0712,-0.0928,-0.0257,-0.0096
"CN(CCO)CC[C@H](CSc1ccccc1)Nc1ccc(S(=O)(=O)NC(=O)c2ccc(N3CCC([C@@H](O)c4ccccc4-c4ccc(Cl)cc4)CC3)cc2)cc1S(=O)(=O)C(F)(F)F [AZD4320] + C[C@@H]1COCCN1C2=NC(=NC(=C2)C3(CC3)[S@](=N)(=O)C)C4=C5C=CNC5=NC=C4 [AZD6738] (first compound max 1 µM, 7x7, partner max 10 µM)",-0.0721,-0.0144,-0.0216,0.042,-0.015,-0.104,-0.0029,-0.0296,0.0053,-0.0433,-0.0423,0.0019,-0.0282,-0.0255,0.0324,-0.0681,-0.0454,-0.0979,-0.0756,0.012
